Structures can show the parent of a compound that is named as a salt.
Columns and labels:
Settings in all cases: exposure time: 72 h
[1] = test system: E31 (patient-derived glioblastoma stem cells of proneural subtype); experiment: phenotypic distance (Euclidean, principal components) from DMSO controls (arbitrary units); higher = stronger morphological change
[2] = test system: E57 (patient-derived glioblastoma stem cells of mesenchymal subtype); experiment: as above
[3] = test system: E21 (patient-derived glioblastoma stem cells of mesenchymal subtype); experiment: as above
[4] = test system: E34 (patient-derived glioblastoma stem cells of proneural subtype); experiment: as above
[5] = test system: E28 (patient-derived glioblastoma stem cells of classical subtype); experiment: as above
[6] = test system: E13 (patient-derived glioblastoma stem cells of classical subtype); experiment: as above
[7] = test system: FT3469 (normal neural stem cell line); experiment: as above
[8] = test system: E31; experiment: surviving fraction (nuclei count normalised to DMSO); higher = more cells surviving (less toxic)
[9] = test system: E57; experiment: as above
[10] = test system: E21; experiment: as above
[11] = test system: E34; experiment: as above
[12] = test system: E28; experiment: as above
[13] = test system: E13; experiment: as above
[14] = test system: FT3469; experiment: as above
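For phenotypic distance (Euclidean, principal components) from DMSO controls in this document: cell Painting imaging in 384-well plates, CellProfiler features reduced to at least 20 principal components, Euclidean distance versus same-plate DMSO vehicle wells (0.1% v/v), median over six images per well.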
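For surviving fraction (nuclei count normalised to DMSO) in this document: nuclei counted by high-content imaging of Hoechst-stained cells in laminin-coated 384-well plates, relative to 0.1% DMSO vehicle wells, with staurosporine as cell-death control.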

COc1cc2ncnc(Nc3cccc(Br)c3)c2cc1OC
Settings	phenotypic distance	surviving fraction
[1], 4.1 nM	0.794	–
[1], 12.3 nM	0.613	–
[1], 37 nM	0.892	–
[1], 111.1 nM	0.732	–
[1], 333.3 nM	1.01	–
[1], 1000 nM	0.889	–
[1], 3000 nM	1.3	–
[2], 4.1 nM	0.927	–
[2], 12.3 nM	1.19	–
[2], 37 nM	1.4	–
[2], 111.1 nM	1.37	–
[2], 333.3 nM	1.71	–
[2], 1000 nM	1.59	–
[2], 3000 nM	1.98	–
[3], 4.1 nM	0.609	–
[3], 12.3 nM	1.01	–
[3], 37 nM	0.8	–
[3], 111.1 nM	3.3	–
[3], 333.3 nM	0.937	–
[3], 1000 nM	1.35	–
[3], 3000 nM	5.43	–
[4], 4.1 nM	0.973	–
[4], 12.3 nM	0.835	–
[4], 37 nM	1.15	–
[4], 111.1 nM	1.03	–
[4], 333.3 nM	1.14	–
[4], 1000 nM	1.16	–
[4], 3000 nM	2.27	–
[5], 4.1 nM	0.79	–
[5], 12.3 nM	0.832	–
[5], 37 nM	0.627	–
[5], 111.1 nM	1.04	–
[5], 333.3 nM	1.13	–
[5], 1000 nM	1.23	–
[5], 3000 nM	0.966	–
[6], 4.1 nM	3.14	–
[6], 12.3 nM	0.603	–
[6], 37 nM	1.05	–
[6], 111.1 nM	4.7	–
[6], 333.3 nM	3.33	–
[6], 1000 nM	1.72	–
[6], 3000 nM	1.27	–
[7], 4.1 nM	0.686	–
[7], 12.3 nM	0.611	–
[7], 37 nM	0.986	–
[7], 111.1 nM	0.512	–
[7], 333.3 nM	0.982	–
[7], 1000 nM	0.82	–
[7], 3000 nM	1.29	–
[8], 4.1 nM	–	1.05
[8], 12.3 nM	–	0.755
[8], 37 nM	–	0.826
[8], 111.1 nM	–	0.837
[8], 333.3 nM	–	0.877
[8], 1000 nM	–	0.767
[8], 3000 nM	–	0.97
[9], 4.1 nM	–	0.926
[9], 12.3 nM	–	0.974
[9], 37 nM	–	0.909
[9], 111.1 nM	–	0.83
[9], 333.3 nM	–	0.818
[9], 1000 nM	–	0.793
[9], 3000 nM	–	0.656
[10], 4.1 nM	–	1.02
[10], 12.3 nM	–	0.921
[10], 37 nM	–	0.943
[10], 111.1 nM	–	0.867
[10], 333.3 nM	–	1.06
[10], 1000 nM	–	0.88
[10], 3000 nM	–	0.346
[11], 4.1 nM	–	1.05
[11], 12.3 nM	–	0.884
[11], 37 nM	–	1.07
[11], 111.1 nM	–	1.12
[11], 333.3 nM	–	0.965
[11], 1000 nM	–	1.07
[11], 3000 nM	–	0.81
[12], 4.1 nM	–	1.07
[12], 12.3 nM	–	0.99
[12], 37 nM	–	0.899
[12], 111.1 nM	–	0.898
[12], 333.3 nM	–	0.963
[12], 1000 nM	–	0.944
[12], 3000 nM	–	0.918
[13], 4.1 nM	–	0.967
[13], 12.3 nM	–	1.02
[13], 37 nM	–	0.972
[13], 111.1 nM	–	0.952
[13], 333.3 nM	–	1.14
[13], 1000 nM	–	1.04
[13], 3000 nM	–	0.903
[14], 4.1 nM	–	0.879
[14], 12.3 nM	–	0.996
[14], 37 nM	–	0.905
[14], 111.1 nM	–	0.858
[14], 333.3 nM	–	1.05
[14], 1000 nM	–	1.04
[14], 3000 nM	–	1.06

COc1cc2c[n+](C)c3c4cc5c(cc4ccc3c2cc1OC)OCO5 [Nitidine chloride]
Settings	phenotypic distance	surviving fraction
[1], 4.1 nM	0.468	–
[1], 12.3 nM	0.762	–
[1], 37 nM	0.828	–
[1], 111.1 nM	1.43	–
[1], 333.3 nM	1.85	–
[1], 1000 nM	2.23	–
[1], 3000 nM	3.9	–
[2], 4.1 nM	0.377	–
[2], 12.3 nM	0.436	–
[2], 37 nM	0.309	–
[2], 111.1 nM	0.645	–
[2], 333.3 nM	1.22	–
[2], 1000 nM	1.25	–
[2], 3000 nM	7	–
[3], 4.1 nM	0.786	–
[3], 12.3 nM	0.739	–
[3], 37 nM	1.02	–
[3], 111.1 nM	1.99	–
[3], 333.3 nM	3.87	–
[3], 1000 nM	4.46	–
[3], 3000 nM	5.64	–
[4], 4.1 nM	0.655	–
[4], 12.3 nM	0.652	–
[4], 37 nM	0.901	–
[4], 111.1 nM	1.63	–
[4], 333.3 nM	1.88	–
[4], 1000 nM	2.46	–
[4], 3000 nM	3.01	–
[5], 4.1 nM	0.661	–
[5], 12.3 nM	0.746	–
[5], 37 nM	1.02	–
[5], 111.1 nM	1.34	–
[5], 333.3 nM	2.74	–
[5], 1000 nM	2.93	–
[5], 3000 nM	3.24	–
[6], 4.1 nM	0.679	–
[6], 12.3 nM	2.36	–
[6], 37 nM	0.78	–
[6], 111.1 nM	0.431	–
[6], 333.3 nM	1.36	–
[6], 1000 nM	1.35	–
[6], 3000 nM	4.56	–
[7], 4.1 nM	0.874	–
[7], 12.3 nM	0.863	–
[7], 37 nM	0.732	–
[7], 111.1 nM	1.27	–
[7], 333.3 nM	2.17	–
[7], 1000 nM	2.35	–
[7], 3000 nM	2.82	–
[8], 4.1 nM	–	0.905
[8], 12.3 nM	–	1.08
[8], 37 nM	–	0.804
[8], 111.1 nM	–	0.738
[8], 333.3 nM	–	0.582
[8], 1000 nM	–	0.599
[8], 3000 nM	–	0.19
[9], 4.1 nM	–	0.996
[9], 12.3 nM	–	0.919
[9], 37 nM	–	0.965
[9], 111.1 nM	–	0.946
[9], 333.3 nM	–	0.91
[9], 1000 nM	–	0.923
[9], 3000 nM	–	0.216
[10], 4.1 nM	–	0.997
[10], 12.3 nM	–	0.869
[10], 37 nM	–	0.959
[10], 111.1 nM	–	0.703
[10], 333.3 nM	–	0.302
[10], 1000 nM	–	0.295
[10], 3000 nM	–	0.066
[11], 4.1 nM	–	1.08
[11], 12.3 nM	–	1.06
[11], 37 nM	–	0.769
[11], 111.1 nM	–	1.08
[11], 333.3 nM	–	0.743
[11], 1000 nM	–	0.706
[11], 3000 nM	–	0.559
[12], 4.1 nM	–	0.955
[12], 12.3 nM	–	0.92
[12], 37 nM	–	0.878
[12], 111.1 nM	–	0.754
[12], 333.3 nM	–	0.506
[12], 1000 nM	–	0.575
[12], 3000 nM	–	0.216
[13], 4.1 nM	–	1.02
[13], 12.3 nM	–	0.937
[13], 37 nM	–	1.01
[13], 111.1 nM	–	1.01
[13], 333.3 nM	–	0.836
[13], 1000 nM	–	0.752
[13], 3000 nM	–	0.397
[14], 4.1 nM	–	0.854
[14], 12.3 nM	–	0.86
[14], 37 nM	–	0.854
[14], 111.1 nM	–	0.752
[14], 333.3 nM	–	0.679
[14], 1000 nM	–	0.646
[14], 3000 nM	–	0.601

N=C(N)c1ccc(-c2ccc(-c3ccc(C(=N)N)cc3)o2)cc1 [Furamidine dihydrochloride]
Settings	phenotypic distance	surviving fraction
[1], 4.1 nM	0.537	–
[1], 12.3 nM	0.559	–
[1], 37 nM	0.53	–
[1], 111.1 nM	0.588	–
[1], 333.3 nM	0.79	–
[1], 1000 nM	1.64	–
[1], 3000 nM	2.69	–
[2], 4.1 nM	0.435	–
[2], 12.3 nM	0.369	–
[2], 37 nM	0.461	–
[2], 111.1 nM	0.581	–
[2], 333.3 nM	0.809	–
[2], 1000 nM	1.18	–
[2], 3000 nM	2	–
[3], 4.1 nM	2.21	–
[3], 12.3 nM	0.291	–
[3], 37 nM	0.446	–
[3], 111.1 nM	0.567	–
[3], 333.3 nM	1.09	–
[3], 1000 nM	1.6	–
[3], 3000 nM	3.09	–
[4], 4.1 nM	0.516	–
[4], 12.3 nM	0.962	–
[4], 37 nM	0.515	–
[4], 111.1 nM	0.866	–
[4], 333.3 nM	1.16	–
[4], 1000 nM	2.15	–
[4], 3000 nM	3.96	–
[5], 4.1 nM	0.942	–
[5], 12.3 nM	0.731	–
[5], 37 nM	0.378	–
[5], 111.1 nM	0.509	–
[5], 333.3 nM	0.894	–
[5], 1000 nM	1.65	–
[5], 3000 nM	3.07	–
[6], 4.1 nM	0.262	–
[6], 12.3 nM	0.642	–
[6], 37 nM	0.687	–
[6], 111.1 nM	0.7	–
[6], 333.3 nM	1.05	–
[6], 1000 nM	1.58	–
[6], 3000 nM	2.41	–
[7], 4.1 nM	0.956	–
[7], 12.3 nM	0.513	–
[7], 37 nM	0.833	–
[7], 111.1 nM	0.595	–
[7], 333.3 nM	0.891	–
[7], 1000 nM	1.39	–
[7], 3000 nM	3.24	–
[8], 4.1 nM	–	0.988
[8], 12.3 nM	–	0.965
[8], 37 nM	–	0.911
[8], 111.1 nM	–	1.08
[8], 333.3 nM	–	1.01
[8], 1000 nM	–	1.04
[8], 3000 nM	–	1.2
[9], 4.1 nM	–	0.99
[9], 12.3 nM	–	0.991
[9], 37 nM	–	1.08
[9], 111.1 nM	–	0.988
[9], 333.3 nM	–	0.981
[9], 1000 nM	–	0.956
[9], 3000 nM	–	0.828
[10], 4.1 nM	–	0.927
[10], 12.3 nM	–	0.912
[10], 37 nM	–	1
[10], 111.1 nM	–	1.01
[10], 333.3 nM	–	1.02
[10], 1000 nM	–	1.03
[10], 3000 nM	–	0.975
[11], 4.1 nM	–	0.983
[11], 12.3 nM	–	1.13
[11], 37 nM	–	1.1
[11], 111.1 nM	–	1.21
[11], 333.3 nM	–	1.2
[11], 1000 nM	–	1.09
[11], 3000 nM	–	1.2
[12], 4.1 nM	–	0.932
[12], 12.3 nM	–	1.02
[12], 37 nM	–	0.995
[12], 111.1 nM	–	1.04
[12], 333.3 nM	–	0.901
[12], 1000 nM	–	1.05
[12], 3000 nM	–	0.861
[13], 4.1 nM	–	0.977
[13], 12.3 nM	–	0.987
[13], 37 nM	–	0.954
[13], 111.1 nM	–	0.919
[13], 333.3 nM	–	1.02
[13], 1000 nM	–	1.1
[13], 3000 nM	–	1.07
[14], 4.1 nM	–	0.904
[14], 12.3 nM	–	0.883
[14], 37 nM	–	0.856
[14], 111.1 nM	–	0.949
[14], 333.3 nM	–	1.12
[14], 1000 nM	–	1
[14], 3000 nM	–	1

Source: the supplement of paper PMC13207355
